For assay [1], the target named is T1, General amino-acid permease GAP1 (Saccharomyces cerevisiae) (UniProt P19145).
T1 sequence (whole entry): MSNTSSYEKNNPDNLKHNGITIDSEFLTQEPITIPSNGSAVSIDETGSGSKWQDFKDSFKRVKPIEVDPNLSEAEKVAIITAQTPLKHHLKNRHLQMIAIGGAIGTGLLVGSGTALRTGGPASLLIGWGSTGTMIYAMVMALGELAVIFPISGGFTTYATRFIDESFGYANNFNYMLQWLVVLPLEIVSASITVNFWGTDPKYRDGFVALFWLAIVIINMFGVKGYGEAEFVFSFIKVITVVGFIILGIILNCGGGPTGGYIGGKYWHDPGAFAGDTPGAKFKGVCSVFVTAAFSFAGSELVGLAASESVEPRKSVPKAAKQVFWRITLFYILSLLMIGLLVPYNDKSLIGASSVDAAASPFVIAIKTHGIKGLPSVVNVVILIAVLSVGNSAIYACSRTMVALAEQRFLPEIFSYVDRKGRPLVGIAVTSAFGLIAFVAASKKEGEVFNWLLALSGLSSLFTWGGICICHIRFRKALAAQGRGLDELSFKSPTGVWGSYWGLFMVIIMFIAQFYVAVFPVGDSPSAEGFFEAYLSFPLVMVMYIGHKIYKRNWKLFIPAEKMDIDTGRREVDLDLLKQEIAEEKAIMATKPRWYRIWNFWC
Briefly: Induction of nitrogen-starved wild type sigma1278b yeast Gap1-mediated trehalase activation at 2 mM in presence of 10 mM MTSEA treated before compound addition.

Assay [2] deals with T2, General amino-acid permease GAP1 (Saccharomyces cerevisiae), P19145 [T400C].
T2 sequence (whole entry): T1 sequence (whole entry) with T400C
Kind of assay: Induction of yeast Gap1 T400C mutant-mediated amino acid uptake at 2 mM in presence of 10 mM MTSEA treated before compound addition.

Assay [3] has as its system T3, General amino-acid permease GAP1 (Saccharomyces cerevisiae), P19145 [A385C].
T3 sequence (whole entry): T1 sequence (whole entry) with A385C
Kind of assay: Induction of yeast Gap1 A385C mutant-mediated […] activation at 2 mM in presence of 10 mM MTSEA treated before compound addition.

Assay [4] relates to General amino-acid permease GAP1 (Saccharomyces cerevisiae), P19145 [Y395C]. Kind of assay: Inhibition of yeast Gap1 Y395C mutant-mediated amino acid uptake at 10 mM.
Sequence of General amino-acid permease GAP1 (Saccharomyces cerevisiae), P19145 [Y395C] (P19145 whole entry Y395C): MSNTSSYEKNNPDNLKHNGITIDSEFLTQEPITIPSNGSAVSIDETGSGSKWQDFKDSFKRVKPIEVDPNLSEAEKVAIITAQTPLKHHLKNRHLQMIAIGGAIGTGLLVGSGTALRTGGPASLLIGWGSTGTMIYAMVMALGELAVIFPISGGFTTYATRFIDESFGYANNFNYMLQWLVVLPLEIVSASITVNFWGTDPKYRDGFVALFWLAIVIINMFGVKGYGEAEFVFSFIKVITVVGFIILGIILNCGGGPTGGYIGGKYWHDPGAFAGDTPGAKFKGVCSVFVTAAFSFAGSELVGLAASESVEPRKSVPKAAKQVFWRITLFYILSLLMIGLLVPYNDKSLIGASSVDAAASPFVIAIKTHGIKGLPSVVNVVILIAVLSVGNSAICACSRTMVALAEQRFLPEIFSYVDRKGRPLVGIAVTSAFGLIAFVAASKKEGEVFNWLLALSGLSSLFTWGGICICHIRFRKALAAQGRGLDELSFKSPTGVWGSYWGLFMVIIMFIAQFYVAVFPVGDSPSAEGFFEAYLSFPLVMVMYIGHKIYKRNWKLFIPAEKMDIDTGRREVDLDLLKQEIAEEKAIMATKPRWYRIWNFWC
In assay [5] the test system is T4, General amino-acid permease GAP1 (Saccharomyces cerevisiae), P19145 [R399C].
T4 sequence (whole entry): T1 sequence (whole entry) with R399C
Briefly: Induction of yeast Gap1 R399C mutant-mediated trehalose activation at 10 mM.

In assay [6] the test system is T5, General amino-acid permease GAP1 (Saccharomyces cerevisiae), P19145 [C397C].
T5 sequence (whole entry): T1 sequence (whole entry)
Kind of assay: Induction of yeast Gap1 C397C mutant-mediated trehalose activation at 10 mM.

The test system of assay [7] is Saccharomyces cerevisiae. Kind of assay: Induction of yeast Gap1 L404 mutant-mediated trehalose activation at 10 mM.
The test system of assay [8] is General amino-acid permease GAP1 (Saccharomyces cerevisiae), P19145 [S392C]. Kind of assay: Inhibition of yeast Gap1 S392C mutant-mediated trehalose activation at 10 mM.
Sequence of General amino-acid permease GAP1 (Saccharomyces cerevisiae), P19145 [S392C] (P19145 whole entry S392C): as the sequence (P19145 whole entry Y395C) above, with S392C, C395Y counted along it

Structures are written as SMILES. Substitutions are numbered along the chain they refer to. Active and inactive are the calls of the source. The calls are words filed in the database; no cut-off is given here.

Regarding `NC(=O)NCCC[C@H](N)C(=O)O`, the inhibition result in assay [1], in assay [3], in assay [4] and in assay [8] was “Active” each time. Further, in assay [2], the outcome was Active. The outcome in assay [5], in assay [6] and in assay [7] was inactive.
